This note sets out measurements from patent US20080167290A1, “Combination of a Serotonin Reuptake Inhibitor and Amoxapine” (H. Lundbeck A/S, priority 2003, published 2008).

Molecules are shown by their SMILES. Read-outs that look alike come from different tables or passages of the source.

In this assay the test system is 5-HT levels in ventral hippocampus. To be noted: for effects on hippocampal 5-HT levels: amoxapine alone, rat ventral hippocampus microdialysis. The method, then:
Male albino rats of a Wistar-derived strain (285-320 g; Harlan, Zeist, The Netherlands) were used for the experiments. Upon surgery, rats were housed individually in plastic cages (35×35×40 cm), and had free access to food and water. Animals were kept on a 12 h light schedule (light on 7:00 a.m.). The experiments are concordant with the declarations of Helsinki and were approved by the animal care committee of the faculty of mathematics and natural science of the University of Groningen.
Preceding surgery rats were anaesthetised using isoflurane (O2/N2O; 300/300 ml/min). Lidocaine-HCl, 10% (m/v) was used for local anaesthesia.
Rats were allowed to recover for at least 24 h. […] 15 minute microdialysis samples were collected in HPLC vials containing 7.5 μl 0.02 M acetic acid for serotonin analysis.
Twenty-μl microdialysate samples were injected via an autoinjector (CMA/200 refrigerated microsampler, CMA, Sweden) onto a 100×2.0 mm C18 Hypersil 3 μm column (Bester, Amstelveen, the Netherlands) and separated with a mobile phase consisting of 5 g/L di-ammoniumsulfate, 500 mg/L EDTA, 50 mg/L heptane sulphonic acid, 4% methanol v/v, and 30 μl/L of triethylamine, pH 4.65 at a flow of 0.4 ml/min (Shimadzu LC-10 AD). 5-HT was detected amperometrically at a glassy carbon electrode at 500 mV vs Ag/AgCl (Antec Leyden, Leiden, The Netherlands). The detection limit was 0.5 fmol 5-HT per 20 μl sample (signal to noise ratio 3).
Four consecutive microdialysis samples with less then 20% variation were taken as control and set at 100%. […] Treatments were compared versus controls using two way analysis of variance (ANOVA) for repeated measurements, followed by Student Newman Keuls test. […] Level of significance level was set at p<0.05.

For `Clc1ccc2c(c1)C(N1CCNCC1)=Nc1ccccc1O2` [amoxapine], the “effects on hippocampal 5-HT levels” value (1 μmol/kg s.c., P=0.08) is on record as “did not induce any significant effects” and the “effects on hippocampal 5-HT levels” value (10 μmol/kg s.c., P=0.47) is recorded as “did not induce any significant effects”. In addition, the “response in the 5-HT microdialysis model” value (summary statement, dose not stated, compared to the serotonin reuptake inhibitor alone) is “no significant effect”.
